Counter-ions that a name gives are not always drawn. Like-named read-outs stand apart in the source and are kept apart here.
Target: T1, recombinant human beta tryptase (Homo sapiens, UniProt P20231)
T1 construct: made in house; host or cells: yeast cells
Assay: beta-Tryptase inhibition, chromogenic enzyme assay (substrate S2366, read at 405 nm)
Format: biochemical
Conditions: Ki calculated from IC50: Ki=IC50/(1+[Substrate]/Km), 0.5 mM substrate, room temperature
Description: Inhibition of this catalytic activity may be measured by the in vitro enzyme assay and the cellular assay.
Tryptase inhibition activity is confirmed using either isolated human lung tryptase or recombinant human beta tryptase expressed in yeast cells. Essentially equivalent results are obtained using isolated native enzyme or the expressed enzyme. The assay procedure employs a 96 well microplate (Costar 3590) using L-pyroglutamyl-L-prolyl-L-arginine-para-nitroanilide (S2366: Quadratech) as substrate (essentially as described by McEuen et. al. Biochem Pharm, 1996, 52, pages 331-340). Assays are performed at room temperature using 0.5 mM substrate (2×Km) and the microplate is read on a microplate reader (Beckman Biomek Plate reader) at 405 nm wavelength.
Materials and Methods for Tryptase primary screen (Chromogenic assay)
S2366 (Stock solutions of 2.5 mM).
Purified recombinant beta Tryptase Stocks of 310 μg/mL. Protocol (Single point determination) • Add 60 μL of diluted substrate (final concentration of 500 μM in assay buffer) to each well • Add compound in duplicates, final concentration of 20 volume 20 • Add enzyme at a final concentration of 50 ng/mL in a volume of 20 • Total volume for each well is 100 • Agitate briefly to mix and incubate at room temp in the dark for 30 minutes • Read absorbencies at […] Each plate has the following controls: • Totals: 60 μL of substrate, 20 μL of buffer (with 0.2% final concentration of DMSO), • 20 μL of enzyme Non-specific: 60 μL of substrate, 40 μL of buffer (with 0.2% DMSO) Totals: 60 μL of substrate, 20 μL of buffer (No DMSO), 20 μL of enzyme Non-specific: 60 μL of substrate, 40 μL of buffer (No DMSO) Protocol (IC50 and Ki determination)
The protocol is essentially the same as above except that the compound is added in duplicates at the following final concentrations: 0.01, 0.03, 0.1, 0.3, 1, 3, 10 μM (All dilutions carried out manually). For every assay, whether single point or IC50 determination, a standard compound is used to derive IC50 for comparison. From the IC50 value, the Ki can be calculated using the following formula: Ki=IC50/(1+[Substrate]/Km).

T1 sequence (P20231 31-275): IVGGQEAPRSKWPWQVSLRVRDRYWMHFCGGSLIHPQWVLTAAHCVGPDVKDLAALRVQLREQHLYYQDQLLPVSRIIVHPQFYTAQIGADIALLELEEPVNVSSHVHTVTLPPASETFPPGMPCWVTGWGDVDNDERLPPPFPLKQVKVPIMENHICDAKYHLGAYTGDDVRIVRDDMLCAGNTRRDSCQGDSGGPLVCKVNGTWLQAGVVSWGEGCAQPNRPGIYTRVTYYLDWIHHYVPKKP

Ki (read-out: Tryptase Ki)	Compound	Ki (Tryptase Ki (nM))
9 nM	COCCn1cc(C(=O)N2CCC(c3cc(CN)ccc3F)CC2)c2c(-c3ccncc3)cccc21 [Example 56, [4-(5-Aminomethyl-2-fluoro-phenyl)-piperidin-1-yl]-[1-(2-methoxy-ethyl)-4-pyridin-4-yl-1H-indol-3-yl]-methanone]	–
–	CCOc1cccc2c1c(C(=O)N1CCC(c3cc(CN)ccc3F)CC1)cn2CCOC [Example 57, [4-(5-Aminomethyl-2-fluoro-phenyl)-piperidin-1-yl]-[4-ethoxy-1-(2-methoxy-ethyl)-1H-indol-3-yl]-methanone hydrochloride]	54 nM
–	COCCn1cc(C(=O)N2CCC(c3cc(CN)ccc3F)CC2)c2c(OC3CC3)cccc21 [Example 58, [4-(5-Aminomethyl-2-fluoro-phenyl)-piperidin-1-yl]-[4-cyclopropoxy-1-(2-methoxy-ethyl)-1H-indol-3-yl]-methanone hydrochloride]	108 nM
–	COCCn1cc(C(=O)N2CCC(c3cc(CN)ccc3F)CC2)c2c(-c3ccccc3)cccc21 [Example 60, [4-(5-Aminomethyl-2-fluoro-phenyl)-piperidin-1-yl]-[1-(2-methoxy-ethyl)-4-phenyl-1H-indol-3-yl]-methanone hydrochloride]	22 nM
17 nM	COCCn1cc(C(=O)N2CCC(c3cc(CN)ccc3F)CC2)c2c(-c3cncnc3)cccc21 [Example 61, [4-(5-Aminomethyl-2-fluoro-phenyl)-piperidin-1-yl]-[1-(2-methoxy-ethyl)-4-pyrimidin-5-yl-1H-indol-3-yl]-methanone dihydrochloride]	–
22 nM	Cc1cccc2c(C(=O)N3CCC(c4cc(CN)ccc4F)CC3)cn(CCn3ccnc3)c12 [Example 62, [4-(5-Aminomethyl-2-fluoro-phenyl)-piperidin-1-yl]-[1-(2-imidazol-1-yl-ethyl)-7-methyl-1H-indol-3-yl]-methanone dihydrochloride]	–
–	COCCn1cc(C(=O)N2CCC(c3cc(CN)ccc3F)CC2)c2c(-c3cccc(F)c3)cccc21 [Example 63, [4-(5-Aminomethyl-2-fluoro-phenyl)-piperidin-1-yl]-[4-(3-fluoro-phenyl)-1-(2-methoxyethyl)-1H-indol-3-yl]-methanone hydrochloride]	46 nM
–	COCCn1cc(C(=O)N2CCC(c3cc(CN)ccc3F)CC2)c2c(-c3cccs3)cccc21 [Example 64, [4-(5-Aminomethyl-2-fluoro-phenyl)-piperidin-1-yl]-[1-(2-methoxy-ethyl)-4-thiophen-2-yl-1H-indol-3-yl]-methanone hydrochloride]	39 nM
11 nM	COCCn1cc(C(=O)N2CCC(c3cc(CN)ccc3F)CC2)c2c(-c3cncc(Cl)c3)cccc21 [Example 65, [4-(5-Aminomethyl-2-fluoro-phenyl)-piperidin-1-yl]-[4-(5-chloro-pyridin-3-yl)-1-(2-methoxy-ethyl)-1H-indol-3-yl]-methanone dihydrochloride]	–
–	COCCn1cc(C(=O)N2CCC(c3cc(CN)ccc3F)CC2)c2c(-c3cc(Cl)cc(Cl)c3)cccc21 [Example 66, 4-(5-Aminomethyl-2-fluoro-phenyl)-piperidin-1-yl]-[4-(3,5-dichloro-phenyl)-1-(2-methoxy-ethyl)-1H-indol-3-yl]-methanone hydrochloride]	164 nM
–	CCCn1cc(-c2cccc3c2c(C(=O)N2CCC(c4cc(CN)ccc4F)CC2)cn3CCOC)cn1 [Example 67, [4-(5-Aminomethyl-2-fluoro-phenyl)-piperidin-1-yl]-[1-(2-methoxy-ethyl)-4-(1-propyl-1H-pyrazol-4-yl)-1H-indol-3-yl]-methanone hydrochloride]	12 nM
–	COCCn1cc(C(=O)N2CCC(c3cc(CN)ccc3F)CC2)c2c(OC(C)C)cccc21 [Example 68, [4-(5-Aminomethyl-2-fluoro-phenyl)-piperidin-1-yl]-[4-isopropoxy-1-(2-methoxy-ethyl)-1H-indol-3-yl]-methanone hydrochloride]	35 nM
–	COCCn1cc(C(=O)N2CCC(c3cc(CN)ccc3F)CC2)c2c(-c3ccc(OC(F)(F)F)cc3)cccc21 [Example 69, [4-(5-Aminomethyl-2-fluoro-phenyl)-piperidin-1-yl]-[1-(2-methoxy-ethyl)-4-(4-trifluoromethoxy-phenyl)-1H-indol-3-yl]-methanone hydrochloride]	400 nM
–	COCCn1cc(C(=O)N2CCC(c3cc(CN)ccc3F)CC2)c2c(-c3ccc(OC)cc3)cccc21 [Example 70, [4-(5-Aminomethyl-2-fluoro-phenyl)-piperidin-1-yl]-[1-(2-methoxy-ethyl)-4-(4-methoxy-phenyl)-1H-indol-3-yl]-methanone hydrochloride]	21 nM
–	COCCn1cc(C(=O)N2CCC(c3cc(CN)ccc3F)CC2)c2c(-c3ccc(F)cc3)cccc21 [Example 71, [4-(5-Aminomethyl-2-fluoro-phenyl)-piperidin-1-yl]-[4-(4-fluoro-phenyl)-1-(2-methoxy-ethyl)-1H-indol-3-yl]-methanone hydrochloride]	49 nM
–	COCCn1cc(C(=O)N2CCC(c3cc(CN)ccc3F)CC2)c2c(-c3cccc(O)c3)cccc21 [Example 72, [4-(5-Aminomethyl-2-fluoro-phenyl)-piperidin-1-yl]-[4-(3-hydroxy-phenyl)-1-(2-methoxy-ethyl)-1H-indol-3-yl]-methanone hydrochloride]	13 nM
7 nM	COCCn1cc(C(=O)N2CCC(c3cc(CN)ccc3F)CC2)c2c(-c3cccnc3)cccc21 [Example 73, [4-(5-Aminomethyl-2-fluoro-phenyl)-piperidin-1-yl]-[1-(2-methoxy-ethyl)-4-pyridin-3-yl-1H-indol-3-yl]-methanone dihydrochloride]	–
26 nM	COCCn1cc(C(=O)N2CCC(c3cc(CN)ccc3F)CC2)c2c(-c3ccccn3)cccc21 [Example 74, [4-(5-Aminomethyl-2-fluoro-phenyl)-piperidin-1-yl]-[1-(2-methoxy-ethyl)-4-pyridin-2-yl-1H-indol-3-yl]-methanone dihydrochloride]	–
–	COCCn1cc(C(=O)N2CCC(c3cc(CN)ccc3F)CC2)c2c(N)cccc21 [Example 75, [4-(5-Aminomethyl-2-fluoro-phenyl)-piperidin-1-yl]-[4-amino-1-(2-methoxy-ethyl)-1H-indol-3-yl]-methanone hydrochloride]	59 nM
–	CNc1cccc2c1c(C(=O)N1CCC(c3cc(CN)ccc3F)CC1)cn2CCOC [Example 76, [4-(5-Aminomethyl-2-fluoro-phenyl)-piperidin-1-yl]-[4-methylamino-1-(2-methoxy-ethyl)-1H-indol-3-yl]-methanone hydrochloride]	211 nM
–	COCCn1cc(C(=O)N2CCC(c3cc(CN)ccc3F)CC2)c2c(N(C)C)cccc21 [Example 77, [4-(5-Aminomethyl-2-fluoro-phenyl)-piperidin-1-yl]-[4-dimethylamino-1-(2-methoxy-ethyl)-1H-indol-3-yl]-methanone hydrochloride]	57 nM
117 nM	NCc1ccc(F)c(C2CCN(C(=O)c3cn(CCOC(F)(F)F)c4cccc(-c5ccncc5)c34)CC2)c1 [Example 78, [4-(5-Aminomethyl-2-fluoro-phenyl)-piperidin-1-yl]-[4-pyridin-4-yl-1-(2-trifluoromethoxy-ethyl)-1H-indol-3-yl]-methanone dihydrochloride]	–
–	NCc1ccc(F)c(C2CCN(C(=O)c3cn(CCOC(F)(F)F)c4cccc(Br)c34)CC2)c1 [Example 79, 4-(5-Aminomethyl-2-fluoro-phenyl)-piperidin-1-yl]-[4-bromo-1-(2-trifluoromethoxy-ethyl)-1H-indol-3-yl]-methanone hydrochloride]	935 nM
–	NCc1ccc(F)c(C2CCN(C(=O)c3cn(CCOC(F)(F)F)c4cccc(-c5ccccc5)c34)CC2)c1 [Example 80, [4-(5-Aminomethyl-2-fluoro-phenyl)-piperidin-1-yl]-[4-phenyl-1-(2-trifluoromethoxy-ethyl)-1H-indol-3-yl]-methanone hydrochloride]	961 nM
–	NCc1ccc(F)c(C2CCN(C(=O)c3cn(CCOC(F)(F)F)c4ccccc34)CC2)c1 [Example 81, hydrochloride]	224 nM
6 nM	COCCn1cc(C(=O)N2CCC(c3cc(CN)ccc3F)CC2)c2c(-c3cncc(C)c3)cccc21 [Example 82, [4-(5-Aminomethyl-2-fluoro-phenyl)-piperidin-1-yl]-[1-(2-methoxy-ethyl)-4-(5-methyl-pyridin-3-yl)-1H-indol-3-yl]-methanone dihydrochloride]	–

— patent publication US20120245161A1 (SANOFI, priority 2009, published 2012)
